Reference: patent US20240190904A1, “Heteroaryl compounds as inhibitors of RIP2 kinase, composition and application thereof” (Accro Bioscience (HK) Limited, priority 2021, published 2024)

Assays:
Type in all cases: in vivo
[1] = Pharmacokinetic evaluation in mice; settings: for AUC / Vd / clearance / half-life / Cmax / Tmax: male, mouse, plasma
Procedure: (§1) The mice pharmacokinetic characteristics of compounds were tested by standard protocols. The candidate compounds were made into clear solution for single intravenous injection (i.v.) and suspension for oral administration (p.o.). Intravenous vehicle is 5% DMSO+95% Saline while oral vehicle is 0.5% CMCNa. The experiment used 48 male mice and 24 mice for intravenous at a dose of 2 mg/kg. Plasma samples were collected at 0 h (before dosing) and 0.083 h, 0.25 h, 0.5 h, 1 h, 2 h, 4 h, 8 h, 24 h after dosing. Another 24 mice were orally administrated with a dose of 10 mg/kg. Plasma samples were collected at 0 h (before dosing) and 0.25 h, 0.5 h, 1 h, 2 h, 4 h, 6 h, 8 h, 24 h after dosing.
(§2) Blood samples were placed in tubes containing K2-EDTA and stored on ice until centrifuged. The blood samples were centrifuged at 6800 g for 6 minutes at 2-8° C. within 1 h after collected and stored frozen at approximately −80° C.
(§3) The analytical results were confirmed using quality control samples for intra-assay variation. The accuracy of >66.7% of the quality control samples and 50% of all QC samples at each concentration level were between 80-120% of the known value(s).
(§4) Standard set of parameters including Area Under the Curve (AUC(0-t) and AUC(0-∞)), elimination half-live (T1/2), maximum plasma concentration (Cmax), time to reach maximum plasma concentration (Tmax) were calculated using noncompartmental analysis modules in FDA certified pharmacokinetic program Phoenix WinNonlin 7.0 (Pharsight, USA) by the Study Director.

MDP induced peritonitis = test: MDP (muramyl dipeptide) induced peritonitis, IL-6 by ELISA; settings: mice, gavage, same dosage as GSK2983559 (10 mg/kg), 3 hours post MDP
Procedure: Mice were divided into four groups Including normal group, DMSO group, positive control group (GSK2983559) and compound group. Mice were dosed by gavage with either GSK2983559 at 10 mg/kg or candidate compounds at 3, 10 mg/kg 30 minutes prior to MDP injection (100 μg/mouse, ip). At 3 hours post MDP administration, the blood sample was collected from ocular vein after anesthesia. IL-6 levels were detected by ELISA.

[2] = Pharmacokinetic evaluation in beagle dog; settings: for AUC / Vd / clearance / half-life / Cmax / Tmax: plasma
Procedure: as §1, with “The beagle dog” for “The mice”, “used 9 dogs. The dogs” for “used 48 male mice and 24 mice”, “of 1” for “of 2”, “dosing. Three dogs” for “dosing. Another 24 mice”, “administrated at” for “administrated with”, “of 5 mg/kg. Another 3 dogs were orally administrated at a dose of 15 mg/kg or 30” for “of 10”
as §2, §3, §4

[3] = Pharmacokinetic evaluation in rats; settings: for AUC / Vd / clearance / half-life / Cmax / Tmax: male, plasma; for AUC / Vd / clearance / half-life / Cmax / Tmax / F: rat
Procedure: The rat pharmacokinetic characteristics of compounds were tested by standard protocols. The candidate compounds were made into clear solution for single intravenous injection (i.v.) and suspension for oral administration (p.o.). Intravenous vehicle is 5% DMSO+95% Saline while oral vehicle is 0.5% CMCNa. The experiment used 9 male rats and 3 rats for intravenous at a dose of 2 mg/kg. Plasma samples were collected at 0 h (before dosing) and 0.083 h, 0.25 h, 0.5 h, 1 h, 2 h, 4 h, 8 h, 24 h after dosing. 3 rats were orally administrated at a dose of 10 mg/kg and 3 rats were orally administrated at a dose of 100 mg/kg. Plasma samples were collected at 0 h (before dosing) and 0.25 h, 0.5 h, 1 h, 2 h, 4 h, 6 h, 8 h, 24 h after dosing.
as §2, §3, §4

Row | Compound | plasma exposure and bioavailability in mice (in words) [1] | AUC ([1]; iv, i.v. 2 mg/kg) [ng·h/mL] | Vd ([1]; iv, i.v. 2 mg/kg) [L/kg] | clearance ([1]; iv, i.v. 2 mg/kg) [mL/min/kg] | half-life ([1]; iv, i.v. 2 mg/kg) [h] | AUC ([1]; po, p.o. 10 mg/kg) [ng·h/mL] | Cmax ([1]; po, p.o. 10 mg/kg) [ng/mL] | Tmax ([1]; po, p.o. 10 mg/kg) [h] | F ([1]; p.o. 10 mg/kg) [%] | inhibition of the level of IL-6 compared with positive control (in words) (MDP induced peritonitis) | plasma exposure and bioavailability in beagle dog (in words) [2] | F ([2]; p.o. 5 mg/kg) [%] | AUC ([2]; iv, i.v. 1 mg/kg) [ng·h/mL] | Vd ([2]; iv, i.v. 1 mg/kg) [L/kg] | clearance ([2]; iv, i.v. 1 mg/kg) [mL/min/kg] | half-life ([2]; iv, i.v. 1 mg/kg) [h] | AUC ([2]; po, p.o. 5 mg/kg) [ng·h/mL] | Cmax ([2]; po, p.o. 5 mg/kg) [ng/mL] | Tmax ([2]; po, p.o. 5 mg/kg) [h] | plasma exposure and bioavailability in rat (in words) [3] | also measured
1 | CP(C)(=O)c1cc2c(Nc3ccc4scnc4c3)ccnc2cc1OC(F)(F)F [A24] | excellent plasma exposure and bioavailability | 22600 | 0.27 | 1.5 | 2.2 | 89100 | 16200 | 0.8 | 79 | more effectively than positive control GSK2983559 | excellent plasma exposure and bioavailability | 212 | 3800 | 0.7 | 4.3 | 1.9 | 40300 | 9720 | 1.1 | excellent plasma exposure and bioavailability | F ([2]; p.o. 15 mg/kg): 88%; AUC ([2]; po, p.o. 15 mg/kg): 50400 ng·h/mL; Cmax ([2]; po, p.o. 15 mg/kg): 13300 ng/mL; Tmax ([2]; po, p.o. 15 mg/kg): 3 h; AUC ([3]; iv, i.v. 2 mg/kg): 26500 ng·h/mL; Vd ([3]; iv, i.v. 2 mg/kg): 0.19 L/kg; clearance ([3]; iv, i.v. 2 mg/kg): 1.2 mL/min/kg; half-life ([3]; iv, i.v. 2 mg/kg): 18 h; AUC ([3]; po, p.o. 10 mg/kg): 248000 ng·h/mL; Cmax ([3]; po, p.o. 10 mg/kg): 20400 ng/mL; Tmax ([3]; po, p.o. 10 mg/kg): 1.8 h; Cmax ([3]; po, p.o. 100 mg/kg): 197000 ng/mL; Tmax ([3]; po, p.o. 100 mg/kg): 24 h; F ([3]; p.o. 10 mg/kg): 187%; F ([3]; p.o. 100 mg/kg): 244%
2 | COc1cc2nccc(Nc3ccc4scnc4c3)c2cc1P(C)(C)=O [A6] | excellent plasma exposure and bioavailability | 2990 | 1.1 | 11.1 | 1.2 | 19200 | 9610 | 0.5 | 129 | more effectively than positive control GSK2983559 | excellent plasma exposure and bioavailability | 131 | 1640 | 1.7 | 9.5 | 2.1 | 10800 | 2190 | 0.7 | excellent plasma exposure and bioavailability | F ([2]; p.o. 30 mg/kg): 184%; AUC ([2]; po, p.o. 30 mg/kg): 90800 ng·h/mL; Cmax ([2]; po, p.o. 30 mg/kg): 8630 ng/mL; Tmax ([2]; po, p.o. 30 mg/kg): 2.7 h; AUC ([3]; iv, i.v. 2 mg/kg): 7890 ng·h/mL; Vd ([3]; iv, i.v. 2 mg/kg): 0.6 L/kg; clearance ([3]; iv, i.v. 2 mg/kg): 4.2 mL/min/kg; half-life ([3]; iv, i.v. 2 mg/kg): 1.7 h; AUC ([3]; po, p.o. 10 mg/kg): 18800 ng·h/mL; Cmax ([3]; po, p.o. 10 mg/kg): 3320 ng/mL; Tmax ([3]; po, p.o. 10 mg/kg): 3.3 h; AUC ([3]; po, p.o. 100 mg/kg): 729000 ng·h/mL; Cmax ([3]; po, p.o. 100 mg/kg): 68400 ng/mL; Tmax ([3]; po, p.o. 100 mg/kg): 4.7 h; F ([3]; p.o. 10 mg/kg): 48%; F ([3]; p.o. 100 mg/kg): 185%
